Where “and” joins values, the source holds several entries; their conditions need not be identical. Equal values may be shown once. Read-outs that look alike come from different tables or passages of the source.
Tests used:
Format in all cases: in vivo
AVEFA = assay: Greenhouse postemergence herbicidal activity on AVEFA, 20 DAT; conditions: Avena fatua, post-emergence, Table 8, read-out: % activity, solo application (I.A)
Sinapis arvensis = assay: Greenhouse postemergence herbicidal activity on SINAR, 20 DAT; conditions: Mutarda arvensis, post-emergence, 480 h, read-out: % activity, solo (I.A)
Protocol: (§1) For the post emergence treatment, the plants were first grown to the 2 leaf station (GS 12) and applied at GS 12-19 depending on the species. The herbicidal compositions were suspended or emulsified in water as distribution medium and sprayed using finely distributing nozzles.
(§2) The plants have been cultivated due to their individual requirements at 10 to 25° C. and. 20 to 35° C. The plants were irrigated due to their necessity.
(§3) The respective stated components A), were formulated as a 5% by weight strength emulsion concentrate containing wettol EM 31 20% and Cyclohexanone 80%. The respective stated components B), were formulated as either emulsifiable concentrates (EC), soluble liquids (SL), suspension concentrates (SC) or soluble granules (SG) as indicated in the table below. Component A, component B and the solvent system are introduced into the spray liquor used for applying the active compound. In the examples, the solvent used was water containing 1% Dash (Agnique ME 181 37.5%, Lutensit A-EP 22.5%, and Oleic Acid 5%) and 2% ammonium suflate.
(§4) In the following experiments, the herbicidal activity for the individual herbicide compounds (solo and mixture applications), the herbicidal succession was assessed 20 days after treatment (DAT). The evaluation for the damage on undesired weeds caused by the chemical compositions was carried out using a scale from 0 to 100%, compared to the untreated control plants. Here, 0 means no damage and 100 means complete destruction of the plants. The plants used in the greenhouse experiments belonged to the following species:
(§5) The value E, which corresponds to the effect (in %) that is to be expected if the activity of the individual compounds is additive, was calculated using the method of S. R. Colby (1967) “Calculating synergistic and antagonistic responses of herbicide combinations”, Weeds 15, p. 22 ff. Colby calculation for 2 way mixtures:
(§6) where: • X=effect in percent using herbicide A at an application rate a; • Y=effect in percent using herbicide B at an application rate b; • E=expected effect (in %) of A+B at application rates a+b
(§7) If the value observed in this manner is higher than the value E calculated according to Colby, a synergistic effect is present.

Conyza canadiensis = assay: Greenhouse postemergence herbicidal activity on ERICA, 20 DAT; conditions: Conyza, post-emergence, ERICA, postemergence; for inhibition at 31.25 g/ha: 31.25 gai/ha
Protocol: as §1, §2, §3, §4, §5, §6, §7

Polygonum convolvulus = assay: Greenhouse postemergence herbicidal activity on POLCO, 20 DAT; conditions: Fallopia convolvulus, post-emergence, POLCO, postemergence; for inhibition at 62.5 g/ha: 62.5 gai/ha
Protocol: as §1, §2, §3, §4, §5, §6, §7

Abutilon theoprasti = assay: Greenhouse postemergence herbicidal activity on ABUTH, 20 DAT
Protocol: as §1, §2, §3, §4, §5, §6, §7

ALOMY = assay: Greenhouse postemergence herbicidal activity on ALOMY, 20 DAT; conditions: Alopecurus myosuroides, post-emergence, Table 8, read-out: % activity, solo application (I.A)
CONAR = assay: Greenhouse postemergence herbicidal activity on CONAR, 20 DAT; conditions: post-emergence, Table 8, read-out: % activity, solo application (I.A)
APESV = assay: Greenhouse postemergence herbicidal activity on APESV, 20 DAT; conditions: post-emergence, Table 8, read-out: % activity, solo application (I.A)
Stellaria media = assay: Greenhouse postemergence herbicidal activity on STEME, 20 DAT; conditions: STEME, postemergence
Protocol: as §1, §2, §3, §4, §5, §6, §7

Setaria viridis = assay: Greenhouse postemergence herbicidal activity on SETVI, 20 DAT; conditions: post-emergence, 62.5 gai/ha, Table 8, read-out: % activity, solo application (I.A)
Protocol: as §1, §2
The respective stated components A), were formulated as a 5% by weight strength emulsion concentrate containing wettol EM 31 20% and Cyclohexanone 80%. The respective stated components B), were formulated as either emulsifiable concentrates (EC), soluble liquids (SL), suspension concentrates (SC) or soluble granules (SG) as indicated in the table below. […]
In the following experiments, the herbicidal activity for the individual herbicide compounds (solo and mixture applications), the herbicidal succession was assessed 20 days after treatment (DAT). […]
The value E, which corresponds to the effect (in %) that is to be expected if the activity of the individual compounds is additive, was calculated using the method of S. R. Colby (1967) “Calculating synergistic and antagonistic responses of herbicide combinations”, Weeds 15, p. […]
as §7

Sorghum bicolor = assay: Greenhouse postemergence herbicidal activity on SORVU, 20 DAT; conditions: Sorghum bicolor, post-emergence, 480 h, SORVU, postemergence, 20 DAT, read-out: % activity, solo (I.A)
Protocol: as §1, §2, §3, §4, §5, §6, §7

Amaranthus retroflexus = assay: Greenhouse postemergence herbicidal activity on AMARE, 20 DAT; conditions: AMARE, postemergence; for inhibition at 62.5 g/ha: 62.5 gai/ha
Protocol: as §1, §2, §3, §4, §5, §6, §7

DIGSA = assay: Greenhouse postemergence herbicidal activity on DIGSA, 20 DAT; conditions: Digitaria sanguinalis, post-emergence, Table 8, read-out: % activity, solo application (I.A)
BROST = assay: Greenhouse postemergence herbicidal activity on BROST, 20 DAT; conditions: post-emergence, 31.25 gai/ha, Table 8, read-out: % activity, solo application (I.A)
Kochia scoparia = assay: Greenhouse postemergence herbicidal activity on KCHSC, 20 DAT; conditions: for inhibition at 31.25 g/ha: 31.25 gai/ha; for inhibition at 62.5 g/ha: 62.5 gai/ha
Protocol: as §1, §2, §3, §4, §5, §6, §7

[1] = 480 h, 15.6 gai/ha, 20 DAT, read-out: % activity, solo (I.A)
[2] = Table 8, read-out: % activity, solo application (I.A)
[3] = Bassia scoparia, post-emergence, Table 6, read-out: % activity, solo application (I.A)
[4] = Bassia scoparia, post-emergence, 480 h, 20 DAT, read-out: % activity, solo (I.A)

CC(C)c1noc2nc(C3CC3)cc(C(=O)O)c12 [(I.A)]
inhibition at 15.6 g/ha (AVEFA; 15.6 gai/ha): 0% | inhibition at 62.5 g/ha (AVEFA; 62.5 gai/ha): 20% | inhibition at 15.6 g/ha (Sinapis arvensis; 15.6 gai/ha): 95% | inhibition at 31.25 g/ha (Sinapis arvensis; 31.25 gai/ha): 78% | inhibition at 62.5 g/ha (Sinapis arvensis; 62.5 gai/ha): 83% | inhibition at 125 g/ha (Sinapis arvensis; 125 gai/ha): 90% | inhibition at 15.6 g/ha (Conyza canadiensis; [1]): 40% | inhibition at 31.25 g/ha (Conyza canadiensis; 480 h, 20 DAT, read-out: % activity, solo (I.A)): 40% | inhibition at 62.5 g/ha (Conyza canadiensis; 480 h, 62.5 gai/ha, 20 DAT, read-out: % activity, solo (I.A)): 90% | inhibition at 31.25 g/ha (Conyza canadiensis; [2]): 35% | inhibition at 15.6 g/ha (Polygonum convolvulus; [1]): 30% | inhibition at 31.25 g/ha (Polygonum convolvulus; 31.25 gai/ha, Table 6, read-out: % activity, solo application (I.A)): 73% | inhibition at 62.5 g/ha (Polygonum convolvulus; Table 6, read-out: % activity, solo application (I.A)): 95% | inhibition at 62.5 g/ha (Polygonum convolvulus; [2]): 35% | inhibition at 125 g/ha (Polygonum convolvulus; 125 gai/ha, Table 6, read-out: % activity, solo application (I.A)): 99% | % activity, solo (I.A) (Abutilon theoprasti; 62.5 gai/ha, 20 DAT): 98% | inhibition at 7.8 g/ha (Abutilon theoprasti; Abutilon, post-emergence, 7.8 gai/ha, Table 8, read-out: % activity, solo application (I.A)): 0% | inhibition at 15.6 g/ha (Abutilon theoprasti; Abutilon, post-emergence, 15.6 gai/ha, Table 8, read-out: % activity, solo application (I.A)): 0% | inhibition at 31.25 g/ha (Abutilon theoprasti; Abutilon, post-emergence, 31.25 gai/ha, Table 8, read-out: % activity, solo application (I.A)): 20% | inhibition at 62.5 g/ha (Abutilon theoprasti; Abutilon, post-emergence, 62.5 gai/ha, Table 6, read-out: % activity, solo application (I.A)): 70% | inhibition at 62.5 g/ha (Abutilon theoprasti; Abutilon, post-emergence, 62.5 gai/ha, Table 8, read-out: % activity, solo application (I.A)): 30% | inhibition at 125 g/ha (Abutilon theoprasti; Abutilon, post-emergence, 480 h, 125 gai/ha, 20 DAT, read-out: % activity, solo (I.A)): 73% | inhibition at 250 g/ha (Abutilon theoprasti; Abutilon, post-emergence, 480 h, 250 gai/ha, 20 DAT, read-out: % activity, solo (I.A)): 92% | inhibition at 15.6 g/ha (ALOMY; 15.6 gai/ha): 0% | inhibition at 31.25 g/ha (ALOMY; 31.25 gai/ha): 0% | inhibition at 62.5 g/ha (ALOMY; 62.5 gai/ha): 20% | inhibition at 7.8 g/ha (CONAR; 7.8 gai/ha): 0% | inhibition at 15.6 g/ha (CONAR; 15.6 gai/ha): 0% | inhibition at 31.25 g/ha (CONAR; 31.25 gai/ha): 0% | inhibition at 62.5 g/ha (CONAR; 62.5 gai/ha): 35% | inhibition at 15.6 g/ha (APESV; 15.6 gai/ha): 0% | inhibition at 31.25 g/ha (APESV; 31.25 gai/ha): 0% | inhibition at 62.5 g/ha (APESV; 62.5 gai/ha): 0% | % activity, solo (I.A) (Stellaria media; 31.25 gai/ha, 20 DAT): 35% | % activity, solo (I.A) (Stellaria media; 62.5 gai/ha, 20 DAT): 70% and 95% | inhibition at 31.25 g/ha (Stellaria media; Stellaria media, post-emergence, 480 h, 31.25 gai/ha, 20 DAT, read-out: % activity, solo (I.A)): 20% | inhibition at 15.6 g/ha (Stellaria media; Stellaria media, post-emergence, 15.6 gai/ha, Table 8, read-out: % activity, solo application (I.A)): 0% | inhibition at 31.25 g/ha (Stellaria media; Stellaria media, post-emergence, 31.25 gai/ha, Table 8, read-out: % activity, solo application (I.A)): 0% | inhibition at 62.5 g/ha (Stellaria media; Stellaria media, post-emergence, 62.5 gai/ha, Table 8, read-out: % activity, solo application (I.A)): 0% | inhibition at 62.5 g/ha (Setaria viridis): 30% | inhibition at 15.6 g/ha (Sorghum bicolor; 15.6 gai/ha): 30% | inhibition at 31.25 g/ha (Sorghum bicolor; 31.25 gai/ha): 30% | inhibition at 62.5 g/ha (Sorghum bicolor; 62.5 gai/ha): 30% | inhibition at 125 g/ha (Sorghum bicolor; 125 gai/ha): 40% | % activity, solo (I.A) (Amaranthus retroflexus; 31.25 gai/ha, 20 DAT): 58% and 78% and 80% | inhibition at 62.5 g/ha (Amaranthus retroflexus; Amaranthus retroflexus, post-emergence, 480 h, 20 DAT, read-out: % activity, solo (I.A)): 94% | inhibition at 125 g/ha (Amaranthus retroflexus; Amaranthus retroflexus, post-emergence, 480 h, 125 gai/ha, 20 DAT, read-out: % activity, solo (I.A)): 93% | inhibition at 7.8 g/ha (Amaranthus retroflexus; Amaranthus retroflexus, post-emergence, 7.8 gai/ha, Table 8, read-out: % activity, solo application (I.A)): 0% | inhibition at 15.6 g/ha (Amaranthus retroflexus; Amaranthus retroflexus, post-emergence, 15.6 gai/ha, Table 8, read-out: % activity, solo application (I.A)): 15% | inhibition at 31.25 g/ha (Amaranthus retroflexus; Amaranthus retroflexus, post-emergence, 31.25 gai/ha, Table 6, read-out: % activity, solo application (I.A)): 65% | inhibition at 62.5 g/ha (Amaranthus retroflexus; Amaranthus retroflexus, post-emergence, Table 8, read-out: % activity, solo application (I.A)): 85% | inhibition at 31.25 g/ha (DIGSA; 31.25 gai/ha): 0% | inhibition at 62.5 g/ha (DIGSA; 62.5 gai/ha): 0% | inhibition at 31.25 g/ha (BROST): 0% | % activity, solo (I.A) (Kochia scoparia; 125 gai/ha, 20 DAT): 95% | inhibition at 31.25 g/ha (Kochia scoparia; [3]): 30% | inhibition at 62.5 g/ha (Kochia scoparia; [3]): 63% | inhibition at 31.25 g/ha (Kochia scoparia; [4]): 35% | inhibition at 62.5 g/ha (Kochia scoparia; [4]): 68% | inhibition at 125 g/ha (Kochia scoparia; Bassia scoparia, post-emergence, 480 h, 125 gai/ha, 20 DAT, read-out: % activity, solo (I.A)): 90%

From patent US20180343865A1, “HERBICIDAL COMPOSITIONS COMPRISING ISOXAZOLO[5,4-B]PYRIDINES” (BASF SE, priority 2015, published 2018)
